Assay results: patent publication US20080063610A1, “Use of Beta-Homocyclocitral as an Agent Against Bad Breath” (SYMRISE GMBH & CO. KG, priority 2004, published 2008)
In brackets after ≈: the same amount, converted by molar mass. Values belong to the compound of their own block, whether it stands above or below them.

Columns and labels:
Type in all cases: cell-based
fresh morning saliva = assay: In-vitro test to reduce bad breath (liquid medium inoculated with fresh morning saliva, sniffed by a panel)
Experimental: In-Vitro Test to Reduce Bad Breath
The test is based on the work of Goldberg and Rosenberg (Production of Oral Malodor in an in vitro System, S. Goldberg and M. Rosenberg, pp.143 -150, in: Bad Breath—A multidisciplinary Approach, Eds: D. van Steenberghe, M. Rosenberg, Leuven University Press, 1996) and has been adapted to improve reproducibility.
A sterile liquid medium inoculated with fresh morning saliva is incubated for a few days at 37° C. and then sniffed by a panel of testers.
An intensive odour characteristic of bad breath has formed. Uninoculated controls have only a faint odour of the medium.
As a control for the tests, Triclosan® (5-chloro-2-(2,4-dichlorophenoxy)phenol) was added to inoculated samples in a concentration of 0.05%.

Escherichia coli [1] = assay: Minimum inhibiting concentration, serial-dilution test
Experimental: (§1) Determination of the Minimum Inhibiting Concentration 5 The minimum inhibiting concentration (MIC) of beta-homocyclocitral was determined in a serial-dilution test against various bacteria.

Fusobacterium nucleatum = assay: as above
Experimental: as §1

Porphyromonas gingivalis = assay: as above
Experimental: as §1

Prevotella intermedia = assay: as above
Experimental: as §1

Pseudomonas aeruginosa = assay: as above
Experimental: as §1

Staphylococcus aureus = assay: as above
Experimental: as §1

Streptococcus mutans = assay: as above
Experimental: as §1

Veilonella parvula = assay: as above
Experimental: as §1

[2] = test system: total number of bacteria in the samples of saliva; assay: Further test: total number of bacteria in samples of saliva; details: concentration of 1000 ppm
Pseudomonas aruginosa = assay: Further tests at 1000 ppm; details: concentration of 1000 ppm
Escherichia coli [3] = assay: Further tests at 1000 ppm; details: concentration of 1000 ppm
[4] = 0.05% added to inoculated samples at the start of the test, 37° C., a few days

SMILES: Oc1cc(Cl)ccc1Oc1ccc(Cl)cc1Cl [Triclosan®, 5-chloro-2-(2,4-dichlorophenoxy)phenol, reference compound]
odour after the incubation period (fresh morning saliva; [4]): same faint odour of medium as the uninoculated samples

MIC (Escherichia coli [1]): > 1000 mg/L | MIC (Porphyromonas gingivalis): 125 mg/L (≈ 752 µM) | MIC (Prevotella intermedia; bacteriostatic): 125 mg/L (≈ 752 µM) | MIC (Pseudomonas aeruginosa): > 1000 mg/L | MIC (Staphylococcus aureus): 500 mg/L (≈ 3010 µM)
SMILES: CC1=C(CC=O)C(C)(C)CCC1 [beta-homocyclocitral, 2,6,6-trimethyl-1-cyclohexene-1-acetaldehyde]
odour after the incubation period (fresh morning saliva; 0.01% added to inoculated samples): a changed characteristic odour or a mixed odour was discernible in some cases | odour after the incubation period (fresh morning saliva; 0.025% added to inoculated samples): no odour | odour after the incubation period (fresh morning saliva; [4]): a slight characteristic odour is discernible | odour at sensory assessment (fresh morning saliva; 0.05% added to the inoculated medium just one hour before the sensory assessment): unpleasant mixed odour of bad breath and a faint beta-homocyclocitral note | minimum effective concentration (fresh morning saliva; no odour after the incubation period): 0.025% | Type (Escherichia coli [1]): No action up to 1000 ppm | Type (Fusobacterium nucleatum): bactericidal action | MIC (Fusobacterium nucleatum; bactericidal): 250 mg/L (≈ 1500 µM) | MIC (Prevotella intermedia; bactericidal): 250 mg/L (≈ 1500 µM) | Type (Pseudomonas aeruginosa): No action up to 1000 ppm | Type (Streptococcus mutans): bactericidal action | MIC (Streptococcus mutans; bactericidal): 500 mg/L (≈ 3010 µM) | Type (Veilonella parvula): bactericidal action | MIC (Veilonella parvula; bactericidal): 500 mg/L (≈ 3010 µM) | reduction of the total number of bacteria in samples of saliva [2]: no significant reduction | reduction with regard to Pseudomonas aruginosa (Pseudomonas aruginosa): no significant reduction | reduction with regard to Escherichia coli (Escherichia coli [3]): no significant reduction
